Measurements reported in ChEMBL document CHEMBL3120091, “Microwave-assisted synthesis and myorelaxant activity of 9-indolyl-1,8-acridinedione derivatives” (2014).
Activity calls are given as the source filed them. The rule behind the calls is not given here.

Columns and labels:
Stomach [1] = assay: Myorelaxant activity in New Zealand white rabbit gastric fundus smooth muscle assessed as relaxation of noradrenaline-induced contraction; format: functional, Oryctolagus cuniculus
Stomach [2] = assay: Myorelaxant activity in New Zealand white rabbit gastric fundus smooth muscle assessed as relaxation of noradrenaline-induced contraction at 3 x 10^-4 M relative to control; format: functional; conditions: Oryctolagus cuniculus
Stomach [3] = assay: Myorelaxant activity in New Zealand white rabbit gastric fundus smooth muscle assessed as relaxation of noradrenaline-induced contraction in presence of L-NAME; format: functional, tissue-based; conditions: Oryctolagus cuniculus
Stomach [4] = assay: Myorelaxant activity in New Zealand white rabbit gastric fundus smooth muscle assessed as relaxation of noradrenaline-induced contraction in presence of propranolol; format: functional, tissue-based; conditions: Oryctolagus cuniculus
Stomach [5] = assay: Myorelaxant activity in New Zealand white rabbit gastric fundus smooth muscle assessed as relaxation of noradrenaline-induced contraction in presence of indomethacin; format: functional, tissue-based; conditions: Oryctolagus cuniculus
Stomach [6] = assay: Myorelaxant activity in New Zealand white rabbit gastric fundus smooth muscle assessed as relaxation of noradrenaline-induced contraction in presence of glibenclamide; format: functional, tissue-based; conditions: Oryctolagus cuniculus
Stomach [7] = assay: Myorelaxant activity in New Zealand white rabbit gastric fundus smooth muscle assessed as relaxation of noradrenaline-induced contraction in presence of tetraethylammonium chloride; format: functional, tissue-based; conditions: Oryctolagus cuniculus

CC(N/C(=N\C#N)Nc1ccncc1)C(C)(C)C (stereo not given) [PINACIDIL ANHYDROUS]
pD2 (Stomach [1]): 3.9 | Emax at 300 µM (Stomach [2]): 63.8%

Cn1c(C2C3=C(CCCC3=O)NC3=C2C(=O)CCC3)cc2ccccc21
Activity (Stomach [3]): Active | Activity (Stomach [4]): Active | Activity (Stomach [5]): Active | pD2 (Stomach [1]; Oryctolagus cuniculus): inactive | Emax (Stomach [2]): inactive

Cn1c(C2C3=C(CC(C)(C)CC3=O)NC3=C2C(=O)CC(C)(C)C3)cc2ccccc21
Activity (Stomach [6]): Active | Activity (Stomach [7]): Active | pD2 (Stomach [1]): 4.1 | Emax at 300 µM (Stomach [2]): 34%

Cn1c(C2C3=C(CCC(C)(C)C3=O)NC3=C2C(=O)C(C)(C)CC3)cc2ccccc21
Activity (Stomach [6]): Active | Activity (Stomach [7]): Active | pD2 (Stomach [1]): 4.6 | Emax at 300 µM (Stomach [2]): 11.6%

CC1(C)CC(=O)C2=C(C1)NC1=C(C(=O)CC(C)(C)C1)C2c1c[nH]c2cc(Br)ccc12
Activity (Stomach [6]): Active | Activity (Stomach [7]): Active | pD2 (Stomach [1]): 4.25 | Emax at 300 µM (Stomach [2]): 52.7%

Cn1cc(C2C3=C(CCCC3=O)NC3=C2C(=O)CCC3)c2ccccc21
Activity (Stomach [3]): Active | Activity (Stomach [4]): Active | Activity (Stomach [5]): Active | pD2 (Stomach [1]; Oryctolagus cuniculus): inactive | Emax (Stomach [2]): inactive

O=C1CCCC2=C1C(c1c[nH]c3ccc(Br)cc13)C1=C(CCCC1=O)N2
Activity (Stomach [3]): Active | Activity (Stomach [4]): Active | Activity (Stomach [5]): Active | pD2 (Stomach [1]; Oryctolagus cuniculus): inactive | Emax (Stomach [2]): inactive

CC1(C)CCC2=C(C1=O)C(c1c[nH]c3ccc(Br)cc13)C1=C(CCC(C)(C)C1=O)N2
Activity (Stomach [6]): Active | Activity (Stomach [7]): Active | pD2 (Stomach [1]): 4.46 | Emax at 300 µM (Stomach [2]): 17.5%

O=C1CCCC2=C1C(c1c[nH]c3cc(Br)ccc13)C1=C(CCCC1=O)N2
Activity (Stomach [3]): Active | Activity (Stomach [4]): Active | Activity (Stomach [5]): Active | pD2 (Stomach [1]; Oryctolagus cuniculus): inactive | Emax (Stomach [2]): inactive

CC1(C)CC(=O)C2=C(C1)NC1=C(C(=O)CC(C)(C)C1)C2c1c[nH]c2ccc(Br)cc12
Activity (Stomach [6]): Active | Activity (Stomach [7]): Active | pD2 (Stomach [1]): 3.85 | Emax at 300 µM (Stomach [2]): 71.5%

Cn1cc(C2C3=C(CC(C)(C)CC3=O)NC3=C2C(=O)CC(C)(C)C3)c2ccccc21
Activity (Stomach [6]): Active | Activity (Stomach [7]): Active | pD2 (Stomach [1]): 4.28 | Emax at 300 µM (Stomach [2]): 28.6%

CC1(C)CCC2=C(C1=O)C(c1c[nH]c3cc(Br)ccc13)C1=C(CCC(C)(C)C1=O)N2
Activity (Stomach [6]): Active | Activity (Stomach [7]): Active | pD2 (Stomach [1]): 4.54 | Emax at 300 µM (Stomach [2]): 12%

Cn1cc(C2C3=C(CCC(C)(C)C3=O)NC3=C2C(=O)C(C)(C)CC3)c2ccccc21
Activity (Stomach [3]): Active | Activity (Stomach [4]): Active | Activity (Stomach [5]): Active | pD2 (Stomach [1]; Oryctolagus cuniculus): inactive | Emax (Stomach [2]): inactive
